# What was measured:
# [1] = test system: MCF7 human breast cancer cell line; test: SRB antiproliferative assay, MCF7; assay type: cell-based
# Procedure: (§1) We determined the effect of various structural factors in the substrates on the antiproliferative activity against those selected to the study cell lines: the location and/or the presence of the prenyl group, the chalcone/flavanone skeleton and the presence of an O-methyl group at C-5 in flavanones. Flavonoids presented in Figure 1 were tested for the antiproliferative activity towards eight cancer cell lines including estrogen-dependent (MCF7 and T-47D) and two normal ones (HLMEC and MCF 10A). The in vitro antiproliferative activity was measured using SRB assay. The results are presented in Figure 2 (and in the supplement in Table S1). The antiproliferative activity was measured separately for each of the experiments and given as the average IC50 (the concentration of tested compound which inhibits 50% of the cells population). Cisplatin (CP), a common anticancer drug, was used as a positive control.
# (§2) The following established in vitro cell lines were applied: MCF7, T-47D, MDA-MB-231 (human breast cancer cell line), A2780 (human ovarian cancer cell line), A2780cis (human cisplatin-resistant ovarian cancer cell line), PC-3 and DU 145 (human prostate cancer cell lines), HT-29 (human colon cancer cell line), HLMEC (human lung microvascular endothelial cell line), and MCF 10A (human mammary epithelial cells line).
# (§3) The cell lines: MDA-MB-231, HT-29, PC-3, DU 145, and MCF 10A were obtained from the American Type Culture Collection (Rockville, MD, USA), MCF7, T-47D, A2780, A2780cis from the European Collection Cell Cultures (Sigma-Aldrich, Chemie GmbH, Steinheim, Germany), while the HLMEC cell line was obtained by M. Paprocka from the institute. All cell lines are being maintained in the Institute of Immunology and Experimental Therapy (Wrocław, Poland). DU 145 and MCF7 cells were cultured in Eagle medium (supplemented with 4mM L-glutamine, 10% fetal bovine serum, 1 mM sodium pyruvate for DU 145 cells or 2 mM L-glutamine, 1% mem non-essential amino acid solution and 8 µg/mL insulin and 10% fetal bovine serum for MCF7). […] HT-29 and T-47D cell lines were cultured in RPMI 1640 + OPTI-MEM medium supplemented with 2 mM L-glutamine, 5% fetal bovine serum and 8 µg/mL of insulin (T-47D) or 1 mM sodium pyruvate (HT-29). MDA-MB-231, PC-3 and HLMEC cell lines were cultured in RPMI 1640 medium supplemented with 2 mM L-glutamine and 10% fetal bovine serum. Medium for MCF 10A cell line consisted of F-12 nutrient mixture supplemented with cholera toxin (0.05 µg/mL), insulin (10 µg/mL), hydrocortisone (0.5 µg/mL), 5% horse serum, and EGFH (20 ng/mL). All the culture media contained antibiotics: 100 units/mL penicillin (Polfa Tarchomin SA, Warsaw, Poland), and 100 µg/mL streptomycin (Sigma-Aldrich, Chemie GmbH, Steinheim, Germany). All cell lines were grown at 37 °C with 5% CO2 humidified atmosphere.
# (§4) Twenty-four hours before the incubation with the tested compounds, the cells were seeded in 96-plates (Sarstedt, Germany) at a density of 1 × 10^4 cells per well (0.75 × 10^4 per well for MCF7 and 1 × 10^3 per well for HLMEC) in 100 µL of a culture medium.
# (§5) Each agent at each concentration (from 0.1 to 100 µg/mL) was tested in a single experiment, which was repeated four to five times. […] Cisplatin was used as a reference drug.
# (§6) The results were calculated as the IC50 (inhibitory concentration 50%)—the concentration of the tested compound which inhibits 50% of the cells population. IC50 values were calculated for each experiment separately and mean values ± SD are presented in the Table S1 in the Supplementary Materials. Each compound at each concentration was tested in triplicate in a single experiment, which was repeated four to five times.
# (§7) The cells were fixed in situ by gently adding cold 50% trichloroacetic acid (50 µL per well). The plates were incubated at 4 °C for 1h and then washed five times with tap water. […]
# [2] = test system: T-47D human breast cancer cell line; test: SRB antiproliferative assay, T-47D; assay type: cell-based
# Procedure: as §1, §2, §3, §4, §5, §6, §7
# [3] = test system: MDA-MB-231 human breast cancer cell line; test: SRB antiproliferative assay, MDA-MB-231; assay type: cell-based
# Procedure: as §1, §2, §3, §4, §5, §6, §7
# [4] = test system: HT-29 human colon cancer cell line; test: SRB antiproliferative assay, HT-29; assay type: cell-based
# [5] = test system: A2780 human ovarian cancer cell line; test: SRB antiproliferative assay, A2780; assay type: cell-based
# Procedure: as §1, §2, §3, §4, §5, §6, §7
# [6] = test system: A2780cis human cisplatin-resistant ovarian cancer cell line; test: SRB antiproliferative assay, A2780cis; assay type: cell-based
# Procedure: as §1, §2, §3, §4, §5, §6, §7
# [7] = test system: PC-3 human prostate cancer cell line; test: SRB antiproliferative assay, PC-3; assay type: cell-based
# Procedure: as §1, §2, §3, §4, §5, §6, §7
# [8] = test system: DU 145 human prostate cancer cell line; test: SRB antiproliferative assay, DU 145; assay type: cell-based
# Procedure: as §1, §2, §3, §4, §5, §6, §7
# [9] = test system: HLMEC human lung microvascular endothelial cell line; test: SRB antiproliferative assay, HLMEC (normal); assay type: cell-based; conditions: Homo sapiens, Endothelial cell, 72 h, mean ± SD
# [10] = test system: MCF 10A human mammary epithelial cells line; test: SRB antiproliferative assay, MCF 10A (normal); assay type: cell-based; conditions: Homo sapiens, MCF-10A, 72 h, mean ± SD, read-out: Normal cell line, IC50, MCF-10A
# Procedure: as §1, §2, §3, §4, §5, §6, §7
# human CYP1A1 = test system: human CYP1A1; parameters: method as in PMID 10752639; conditions: cited from earlier work
# human CYP1B1 = test system: human CYP1B1; parameters: method as in PMID 10752639; conditions: cited from earlier work
# [11] = breast tissue study of Bolca and co-workers; cited from earlier work
# PC-3 cell line = test system: PC-3 cell line; parameters: method as in PMID 23434138; conditions: earlier study; cited from earlier work
smiles,measurement,setting,value
"COc1cc(O)c(CC=C(C)C)c(O)c1C(=O)/C=C/c1ccc(O)cc1 [XN, 3′-(3,3-dimethylallyl)-4,2′,4′-trihydroxy-6′-methoxychalcone]",IC50,"[1]; Homo sapiens, MCF7, 72 h, SRB, 72 h, mean ± SD",10.8 ± 0.32 µM
same,"Selectivity index SIA, MCF-7",[1]; IC50 HLMEC / IC50 MCF-7,0.88
same,"Selectivity index SIB, MCF-7",[1]; IC50 MCF-10A / IC50 MCF-7,5.16
same,IC50,"[2]; Homo sapiens, T47D, SRB, 72 h, mean ± SD",7.99 ± 2.77 µM
same,"Selectivity index SIA, T-47D",[2]; IC50 HLMEC / IC50 T-47D,1.20
same,"Selectivity index SIB, T-47D",[2]; IC50 MCF-10A / IC50 T-47D,7.00
same,IC50,"[3]; Homo sapiens, MDA-MB-231, SRB, 72 h, mean ± SD",8.46 ± 3.19 µM
same,"Selectivity index SIA, MDA-MB-231",[3]; IC50 HLMEC / IC50 MDA-MB-231,1.13
same,"Selectivity index SIB, MDA-MB-231",[3]; IC50 MCF-10A / IC50 MDA-MB-231,6.61
same,IC50,"[4]; Homo sapiens, HT-29, SRB, 72 h, mean ± SD",9.42 ± 0.25 µM
same,"Selectivity index SIA, HT-29",[4]; IC50 HLMEC / IC50 HT-29,1.02
same,"Selectivity index SIB, HT-29",[4]; IC50 MCF-10A / IC50 HT-29,5.94
same,IC50,"[5]; Homo sapiens, A2780, SRB, 72 h, mean ± SD, read-out: Cancer cell line, IC50, A-2780",2.06 ± 1.03 µM
same,"Selectivity index SIA, A-2780",[5]; IC50 HLMEC / IC50 A-2780,4.65
same,"Selectivity index SIB, A-2780",[5]; IC50 MCF-10A / IC50 A-2780,27.16
same,"SIA against A2780, times higher than the reference",[5]; ratio of SIA to SIA of cisplatin,5-8 times
same,IC50,"[6]; Homo sapiens, A2780cis, SRB, 72 h, mean ± SD, read-out: Cancer cell line, IC50, A-2780cis",8.21 ± 0.83 µM
same,"Selectivity index SIA, A-2780cis",[6]; IC50 HLMEC / IC50 A-2780cis,1.17
same,"Selectivity index SIB, A-2780cis",[6]; IC50 MCF-10A / IC50 A-2780cis,6.81
same,IC50,"[7]; Homo sapiens, SRB, 72 h, mean ± SD",8.61 ± 1.11 µM
same,"Selectivity index SIA, PC-3",[7]; IC50 HLMEC / IC50 PC-3,1.11
same,"Selectivity index SIB, PC-3",[7]; IC50 MCF-10A / IC50 PC-3,6.50
same,IC50,"[8]; Homo sapiens, DU-145, SRB, 72 h, mean ± SD",6.49 ± 2.14 µM
same,"Selectivity index SIA, Du-145",[8]; IC50 HLMEC / IC50 Du-145,1.47
same,"Selectivity index SIB, Du-145",[8]; IC50 MCF-10A / IC50 Du-145,8.62
same,IC50,[9],9.57 ± 4.23 µM
same,IC50,[10],56 ± 27.3 µM
same,Inhibition of EROD activity of CYP1A1,human CYP1A1,almost completely inhibited
same,Inhibition of EROD activity of CYP1B1,human CYP1B1,almost completely inhibited
same,Glucuronidation,[11],> 90%
"COc1cc(O)c(CCC(C)(C)O)c(O)c1C(=O)/C=C/c1ccc(O)cc1 [xanthohumol H, 3′-[3′-hydroxy-3”methylbutyl]-4,2′,4′-trihydroxy-6′-methoxychalcone]",Antiproliferative activity towards PC-3 cell line,PC-3 cell line,inactive
